Structures are written as SMILES. “Also recorded” adds a separate entry of the source.

In one series the test system is glycogen phosphorylase. The settings on record: in the presence or absence of glucose; human cells; cited from earlier work.
In another series the test system is OVCAR-3 cells. In words: Metabolic flux profiling with [1,2-13C2]-D-glucose tracer in cultured OVCAR-3 cells (GC/MS, MIDA). It is filed as cell-based, human. The source says: (§1) Goal: This study relates to analyzing the effect of the 3-nitro-4-iodobenzamide (compound of formula III) in vitro on cultured OVCAR-3 cells' and HeLa cells' metabolic fluxes using [1,2-^13C2]-D-glucose as the only source of glucose. The analysis includes correlating fluxes with cell growth-modifying effect, analyzing mechanism of anti-proliferative action and analyzing potential toxicity, selectivity, and efficacy. Target metabolites include glucose (culture medium and pellet glycogen), lactate (culture medium), ^13CO2 (culture medium), C:14 (myristate); C:16 (palmitate); C:18 (stearate); C:18-1 (oleate); C:20; C:22; C:24 (cell pellet), acetyl-CoA synthesis for fatty acids (cell pellet), and RNA ribose and DNA deoxyribose (cell pellet). Target fluxes include glucose uptake from culture media; lactate production from glucose (anaerobic glycolysis); ^13CO2 release from glucose via TCA cycle; glycogen synthesis; de novo fatty acid synthesis, elongation, desaturation and acetyl-CoA synthesis; and pentose cycle-RNA and DNA ribose synthesis via oxidative and non-oxidative reactions.
(§2) Materials & Methods: The tracer for this metabolic profiling study, stable isotope [1, 2-^13C2]-D-glucose, is purchased with >99% purity and 99% isotope enrichment for each position from Cambridge Isotope Laboratories, Inc. (Andover, Mass.).
(§3) Cells & cell culture: OVCAR3 and Hela cells are purchased from American Type Culture Collection (ATCC). The cells are cultured according to instructions obtained from ATCC. The cells are incubated at 37° C., 5% CO2 and 95% humidity and passed by using trypsin 0.25% (Gibco/BRL) no more than ten times after receipt from the ATCC and prior to use in this study.
(§4) Seventy-five percent confluent cultures cells are incubated in [1,2-^13C2]D-glucose-containing media (100 mg/dl total concentration=5 mM; 50% isotope enrichment—i.e. half unlabeled glucose, half labeled with the stable isotope ^13C tracer). […] Control cultures are treated with vehicle only. […] Glucose and lactate levels in the medium are measured using a Cobas Mira chemistry analyzer (Roche Diagnostics, Pleasanton, Calif., USA).
(§5) RNA ribose stable isotope studies: RNA ribose is isolated by acid hydrolysis of cellular RNA after Trizol purification of cell extracts. Total RNA amounts are assessed by spectrophotometric determination, in triplicate cultures. Ribose is derivatized to its aldonitrile acetate form using hydroxylamine in pyridine with acetic anhydride (Supelco, Bellefonte, Pa.) before mass spectral analyses. The ion cluster is monitored around the m/z 256 (carbons 1-5 of ribose) (chemical ionization, CI) and m/z 217 (carbons 3-5 of ribose) and m/z 242 (carbons 1-4 of ribose) (electron impact ionization, EI) to determine molar enrichment and the positional distribution of ^13C in ribose. By convention, the base mass of ^12C-compounds (with their derivatization agents) is given as m0 as measured by mass spectrometry (Boros L G, et al. 2002, Drug Discov. Today 7: 364-372).
(§6) Ribose molecules labeled with a single ^13C atom on the first carbon position (m1) recovered from RNA are used to gauge the ribose fraction produced by direct oxidation of glucose through the G6PD pathway. Ribose molecules labeled with ^13C on the first two carbon positions (m2) are used to measure the fraction produced by transketolase. Doubly labeled ribose molecules (m2 and m4) on the fourth and fifth carbon positions are used to measure molar fraction produced by triose phosphate isomerase and transketolase.
(§7) Lactate: Lactate from the cell culture media (0.2 ml) is extracted by ethylene chloride after acidification with HCL. Lactate is derivatized to its propylamine-heptafluorobutyrate ester form and the m/z 328 (carbons 1-3 of lactate) (chemical ionization, CI) is monitored for the detection of m1 (recycled lactate through the PC) and m2 (lactate produced by the Embden-Meyerhof-Pamas pathway) for the estimation of pentose cycle activity (Lee W N, et al. 1998, Am J Physiol 274: E843-E851). […]

The test system of the next series is HeLa cells. In words: Metabolic flux profiling with [1,2-13C2]-D-glucose tracer in cultured HeLa cells (GC/MS, MIDA). It is filed as cell-based, human.
From the text: as §1, §2, §3, §4, §5, §6, §7

For a further series, the system named is tumor tissue. The settings on record: in vivo; cited from earlier work.
A further series relates to cancer cells. The settings on record: cancer cells with highly active fatty acid synthesis; cited from earlier work.
The conditions of series [1]: cited from earlier work.

For the compound `NC(=O)c1ccc(I)c([N+](=O)[O-])c1` [3-nitro-4-iodobenzamide], the glycogen phosphorylase activity entry with glycogen phosphorylase is listed as “effectively controls”. In the series on OVCAR-3 cells, the “G6PDH and transketolase fluxes for DNA deoxyribose synthesis” value was “target enzymes; also recorded: inhibits”; the “Glycogen synthesis and breakdown via the direct pathway” value is “inhibits”; the “acetyl-CoA contribution from glucose to long chain saturated fatty acids (C:20-C:24)” value is recorded as “dose-dependent increase”; the “toxic effects on cell energy production and nucleic acid RNA turnover” value was “no toxic effects”. In addition, the “arachidic acid (C:20) synthesis” value in the series with OVCAR-3 cells (3 and 10 μM, 72 hours, FIGS. 9A and B) is “inhibit”. Besides, the “C:22 fatty acid synthesis” value with OVCAR-3 cells (3 and 10 μM, 72 hours, FIGS. 10A and B) was “inhibit”. The “C:24 fatty acid synthesis” value in the series with OVCAR-3 cells (3 and 10 μM, 72 hours, FIGS. 11A and B) is listed as “inhibit”. In the series with OVCAR-3 cells (mechanism of anti-proliferative action), the “cell membrane formation via limited de novo long chain (C:20-C:24) fatty acid synthesis” value is given as “decreases”. For the same compound, in the series with HeLa cells (HeLa cells), the “De novo synthesis of arachidic acid (C:20)” value is recorded as “spared from the inhibitory action”; the “Oxidation of glucose into CO2 and ATP production in the TCA cycle” value is given as “not affected”; the “acetyl-CoA contribution from glucose to long chain saturated fatty acids (C:20-C:24)” value is on record as “dose-dependent increase”; the “contribution to acetyl-CoA synthesis from glucose (C:14-C:18 fatty acids)” value is listed as “low”. Moreover, in the series on HeLa cells (HeLa cells), the “substrate (glucose) uptake and activation (phosphorylation)” value is “no inhibitory effect”; the “toxic effects on cell energy production, nucleic acid turnover and glycogen synthesis” value is “no toxic effects”. Moreover, the “medium and long chain fatty acid (C:14-C:18) de novo synthesis from glucose” value in the series with HeLa cells (HeLa cells, dose-responsive) was “decreased”. In addition, the “cell membrane formation via limited de novo fatty acid synthesis” value in the series on HeLa cells (HeLa cells, mechanism of anti-proliferative action) was “decreases”. Besides, in the series with HeLa cells (HeLa cultures), the “Acetyl-CoA enrichment/formation from glucose for arachidic acid synthesis” value was “high and increases”. Besides, in the series with HeLa cells (Hela cells, 3 and 10 μM, 13C-labeled myristate at 72 hours, FIGS. 3A and B), the “myristate (C:14) synthesis” value is given as “inhibit”. The “oleate (C:18-1) synthesis” value in the series on HeLa cells (Hela cells, 3 and 10 μM, 13C-labeled oleate at 72 hours, FIGS. 6A and B) was “inhibit”. The “palmitate (C:16) synthesis” value in the series on HeLa cells (Hela cells, 3 and 10 μM, 13C-labeled palmitate at 72 hours, FIGS. 4A and B) is recorded as “inhibit”. In addition, the “stearate (C:18) synthesis” value in the series on HeLa cells (Hela cells, 3 and 10 μM, 13C-labeled stearate at 72 hours, FIGS. 5A and B) was “inhibit”. The “C:22 fatty acid synthesis” value with HeLa cells (Hela cells, 3 and 10 μM, 72 hours, FIGS. 7A and B) is listed as “inhibit”. Further, in the series with HeLa cells (Hela cells, 3 and 10 μM, 72 hours, FIGS. 8A and B), the “C:24 fatty acid synthesis” value is “inhibit”.
For the compound `C=C1C(=O)OC(CCCCCCCC)C1C(=O)O` (stereo not shown) [C75], in the series with tumor tissue, the anti-tumor activity result is “anti-tumor activity” and the “fatty acid synthesis in tumor tissue” value was “inhibition”.
Consider `C/C=C/C/C=C/CCC(=O)[C@H]1O[C@H]1C(N)=O` [cerulenin], for which the “effect on cancer cells in vitro” value in the series with cancer cells is recorded as “cell death by means of apoptosis”. Also, the in vivo activity entry in series [1] is “limited in vivo activity”.

Source of the values: patent publication US7994222B2, “Monitoring of the inhibition of fatty acid synthesis by iodo-nitrobenzamide compounds” (BiPar Sciences, Inc., priority 2006, dated 2011).
